Laboratory results published in patent publication US20190031599A1, “INDANE DERIVATIVES AS MGLUR7 MODULATORS” (Takeda Pharmaceutical Company Limited, priority 2016, published 2019).
Where a name gives a salt, the structure may show the parent alone.

target: T1, human mGluR7 (Homo sapiens, UniProt Q14831); experiment: mGluR7 assay: CRE-directed luciferase reporter gene assay, reduction of forskolin stimulated cAMP production; assay type: cell-based; settings: stable CHO cell line expressing the CRE-luc reporter and human mGluR7 genes; decrease of forskolin stimulated luminescence; 10-point concentration-response, duplicate wells
T1 construct: expressed in transfected cells
T1 sequence (Q14831 35-915): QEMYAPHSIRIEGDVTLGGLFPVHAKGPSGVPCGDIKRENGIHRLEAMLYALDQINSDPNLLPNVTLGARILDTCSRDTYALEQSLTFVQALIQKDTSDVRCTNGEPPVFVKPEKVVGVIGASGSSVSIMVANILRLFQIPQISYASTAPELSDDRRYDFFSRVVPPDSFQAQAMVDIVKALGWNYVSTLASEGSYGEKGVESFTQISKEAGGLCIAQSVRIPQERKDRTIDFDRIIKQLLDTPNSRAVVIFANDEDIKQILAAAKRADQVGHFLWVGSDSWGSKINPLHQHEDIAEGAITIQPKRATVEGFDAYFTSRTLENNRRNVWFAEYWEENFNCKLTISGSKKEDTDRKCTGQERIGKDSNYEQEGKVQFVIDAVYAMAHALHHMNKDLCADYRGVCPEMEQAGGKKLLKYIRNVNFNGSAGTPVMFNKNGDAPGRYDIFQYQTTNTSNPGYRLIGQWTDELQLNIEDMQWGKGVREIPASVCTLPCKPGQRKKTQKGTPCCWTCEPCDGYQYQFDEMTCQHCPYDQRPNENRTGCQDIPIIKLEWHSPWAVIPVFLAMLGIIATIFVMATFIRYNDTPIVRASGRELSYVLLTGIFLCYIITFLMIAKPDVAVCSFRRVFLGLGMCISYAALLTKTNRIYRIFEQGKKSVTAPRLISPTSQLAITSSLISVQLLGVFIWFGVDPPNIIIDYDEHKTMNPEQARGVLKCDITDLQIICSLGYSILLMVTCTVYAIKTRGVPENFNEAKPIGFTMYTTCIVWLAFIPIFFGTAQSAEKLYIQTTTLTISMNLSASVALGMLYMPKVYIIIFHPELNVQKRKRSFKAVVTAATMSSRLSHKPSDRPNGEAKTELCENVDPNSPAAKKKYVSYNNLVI
Experimental: The ability of the test compounds to activate mGluR7 was determined by their ability to reduce forskolin stimulated cAMP production. Compounds were assessed in a CRE-directed luciferase reporter gene assay, using a stable CHO cell line expressing the CRE-luc reporter and human mGluR7 genes. In this cell line, production of cAMP stimulated the transcription of the luciferase gene and luciferase activity was then measured in a luminescent enzyme assay (Steady Glo assay; Promega E2550). Activation of mGluR7 decreased the forskolin stimulated luminescence signal.
The day prior to the assay, compounds were serially diluted in DMSO (100× final assay concentration (FAC)), in 384-well plates which were then stored in the dark at room temperature (RT) until use. Cells were seeded at 12.5 k/well in white, clear bottom 384-well plates (Corning 3707) and left for one hour at RT followed by an overnight incubation (37° C.). The following day, the DMSO compound plate was diluted 1:20 (5× FAC) in Opti-MEM I (Life Technologies 11058021). The growth media was removed from the cell plate and replaced with 15 μl Opti-MEM I, followed by a 5 μl addition from the 5× compound plate and a fifteen minute incubation (37° C.). Forskolin (Sigma F3917) was then added to the wells (5 μl of 2.5 μM) and the plate was incubated for five hours (37° C.). During this incubation, the Steady Glo Substrate reagent was warmed to 37° C. Aliquots (11 ml; stored at −20° C.) of this reagent were prepared by dissolving the contents of 1 vial of lyophilised substrate in 100 ml Steady-Glo buffer. A 25 μl addition of the substrate was made to all wells and the plate was incubated for thirty minutes at RT, on a plate shaker (300 rpm; in the dark). Luminescence was then measured using the EnVision Multilabel Reader (Perkin Elmer).
Compound activity was examined using a 10-point, half log concentration-response range and each concentration was tested in duplicate wells. Luminescence values were normalised to ‘maximum’ (forskolin alone) and ‘minimum’ (forskolin in the presence of tool mGluR7 agonist) controls.

First: CS(=O)(=O)[C@@H]1c2ccccc2C[C@H]1NC(=O)C(OCC1CC1)c1ccc(F)cc1 (single isomer, unassigned) [Example 161, 2-(cyclopropylmethoxy)-2-(4-fluorophenyl)-N-(trans)-(1-methanesulfonyl-2,3-dihydro-1H-inden-2-yl)acetamide]
Second: CC1c2ccccc2CC1NC(=O)[C@@H](NS(C)(=O)=O)c1ccc(F)cc1 (stereo in doubt) [Example 85, (2S)-2-(4-fluorophenyl)-2-methanesulfonamido-N-((trans)-1-methyl-2,3-dihydro-1H-inden-2-yl)acetamide]
The EC50 of the first is 13-fold lower: 2 nM for the first, 26 nM for the second. The first is the more potent here.

First: CS(=O)(=O)[C@@H]1c2ccccc2C[C@H]1NC(=O)C(OCC1CC1)c1ccc(F)cc1 (single isomer, unassigned) [Example 162, 2-(cyclopropylmethoxy)-2-(4-fluorophenyl)-N-(trans)-(1-methanesulfonyl-2,3-dihydro-1H-inden-2-yl)acetamide]
Second: COC1c2ccccc2CC1NC(=O)[C@@H](NS(C)(=O)=O)c1ccc(F)cc1 (stereo in doubt) [Example 72, (2S)-2-(4-fluorophenyl)-2-methanesulphonamido-N-(trans)-(1-methoxy-2,3-dihydro-1H-inden-2-yl)acetamide]
The EC50 of the first is 5.5-fold lower: 2 nM for the first, 11 nM for the second.

Compared with `C[C@@H](C(=O)NC1Cc2ccccc2C1O)c1ccccc1` (stereo in doubt) [Example 1, (2R)—N-((trans)-1-hydroxy-2,3-dihydro-1H-inden-2-yl)-2-phenylpropanamide], `C[C@H](C(=O)N[C@H]1Cc2ccccc2[C@@H]1N)c1ccccc1` [Example 11, (2S)—N-[(1S,2S)-1-amino-2,3-dihydro-1H-inden-2-yl]-2-phenylpropanamide hydrochloride] is 4.7-fold lower in EC50: 559 nM for the first, 119 nM for the second.

First: COC1c2ccccc2CC1NC(=O)[C@@H](C)c1ccccc1 (stereo in doubt) [Example 10, (2S)—N-((cis)-1-methoxy-2,3-dihydro-1H-inden-2-yl)-2-phenylpropanamide]
Second: CN[C@H]1c2ccccc2C[C@@H]1NC(=O)[C@@H](C)c1ccccc1 [Example 22, (2S)—N-[(1S,2S)-1-(methylamino)-2,3-dihydro-1H-inden-2-yl]-2-phenylpropanamide]
The EC50 of the first is 15-fold higher: 1030 nM for the first, 70 nM for the second.

Compared with `CCOC1c2ccccc2CC1NC(=O)[C@@H](C)c1ccc(F)cc1` (stereo in doubt) [Example 31, (2S)—N-((trans)-1-ethoxy-2,3-dihydro-1H-inden-2-yl)-2-(4-fluorophenyl)propanamide], `COC1c2ccccc2CC1NC(=O)[C@@H](C)c1ccc(F)cc1` (stereo in doubt) [Example 39, (2S)-2-(4-fluorophenyl)-N-(cis)-(1-methoxy-2,3-dihydro-1H-inden-2-yl)propanamide] is 33-fold higher in EC50: 19 nM for the first, 633 nM for the second.

`C[C@H](C(=O)NC1Cc2ccccc2C1O)c1ccc(F)cc1` (stereo in doubt) [Example 61, (2S)-2-(4-fluorophenyl)-N-(trans)-(1-hydroxy-2,3-dihydro-1H-inden-2-yl)propanamide] and `C[C@H](C(=O)N[C@H]1Cc2ccccc2[C@@H]1N)c1ccc(F)cc1` [Example 24, (2S)—N-[(1S,2S)-1-amino-2,3-dihydro-1H-inden-2-yl]-2-(4-fluorophenyl)propanamide] are within 1.5-fold of each other in EC50: 56 nM for the first, 66 nM for the second.

`COC1c2ccccc2CC1NC(=O)[C@@H](NC(=O)c1cnn(C)c1)c1ccc(F)cc1` (stereo in doubt) [Example 65, (2S)-2-(4-fluorophenyl)-N-(trans)-(1-methoxy-2,3-dihydro-1H-inden-2-yl)-2-[(1-methyl-1H-pyrazol-4-yl)formamido]acetamide] and `COC1c2ccccc2CC1NC(=O)[C@@H](NC(=O)C1CC1)c1ccc(F)cc1` (stereo in doubt) [Example 66, (2S)-2-(cyclopropylformamido)-2-(4-fluorophenyl)-N-(trans)-(1-methoxy-2,3-dihydro-1H-inden-2-yl)acetamide] are the same in EC50: 4 nM for the first, 4 nM for the second.

Going from `CC1c2ccccc2CC1NC(=O)[C@@H](NC(=O)OC(C)(C)C)c1ccc(F)cc1` (stereo in doubt) [Example 71, tert-butyl N—[(S)-(4-fluorophenyl)[(trans)-(1-methyl-2,3-dihydro-1H-inden-2-yl)carbamoyl]methyl]carbamate] to `C[C@H](C(=O)N[C@H]1Cc2ccccc2[C@@H]1NC(=O)OC(C)(C)C)c1ccc(F)cc1` [Example 21, tert-butyl N-[(1S,2S)-2-[(2S)-2-(4-fluorophenyl)propanamido]-2,3-dihydro-1H-inden-1-yl]carbamate], the EC50 rises from 2 nM to 28 nM (14-fold). The first is the more potent here.

`CO[C@H](C(=O)NC1Cc2ccccc2C1S(C)(=O)=O)c1ccccc1` (stereo in doubt) [Example 149, (2S)—N-(trans)-(1-methanesulfonyl-2,3-dihydro-1H-inden-2-yl)-2-methoxy-2-phenylacetamide] and `CCS(=O)(=O)C1c2ccccc2CC1NC(=O)[C@@H](OC)c1ccccc1` (stereo in doubt) [Example 150, (2S)—N-(trans)-(1-ethanesulfonyl-2,3-dihydro-1H-inden-2-yl)-2-methoxy-2-phenylacetamide] are within 1.5-fold of each other in EC50: 225 nM for the first, 156 nM for the second.

First: C[C@H](C(=O)N[C@@H]1Cc2ccccc2[C@H]1N)c1ccccc1 [Example 12, (2S)—N-[(1R,2R)-1-amino-2,3-dihydro-1H-inden-2-yl]-2-phenylpropanamide]
Second: CO[C@H](C(=O)N[C@H]1Cc2ccccc2[C@@H]1N)c1ccccc1 [Example 19, (2S)—N-[(1S,2S)-1-amino-2,3-dihydro-1H-inden-2-yl]-2-methoxy-2-phenylacetamide hydrochloride]
The EC50 of the first is 3.4-fold lower: 290 nM for the first, 973 nM for the second. The first is the more potent here.

Going from `CC(=O)N[C@H]1c2ccccc2C[C@@H]1NC(=O)[C@@H](C)c1ccccc1` [Example 13, (2S)—N-[(1S,2S)-1-acetamido-2,3-dihydro-1H-inden-2-yl]-2-phenylpropanamide] to `C[C@H](C(=O)N[C@@H]1Cc2ccccc2[C@H]1NC(=O)OC(C)(C)C)c1ccccc1` [Example 18, tert-butyl N-[(1R,2R)-2-[(2S)-2-phenylpropanamido]-2,3-dihydro-1H-inden-1-yl]carbamate], the EC50 falls from 1200 nM to 150 nM (8-fold). The second is the more potent here.

`CCC(C(=O)N[C@H]1Cc2ccccc2[C@@H]1N)c1ccc(F)cc1F` (stereo partly drawn) [Example 14, N-[(1S,2S)-1-amino-2,3-dihydro-1H-inden-2-yl]-2-(2,4-difluorophenyl)butanamide hydrochloride] and `CCC(C(=O)N[C@@H]1Cc2ccccc2[C@H]1N)c1ccc(F)cc1F` (stereo partly drawn) [Example 17, N-[(1R,2R)-1-amino-2,3-dihydro-1H-inden-2-yl]-2-(2,4-difluorophenyl)butanamide hydrochloride] are within 1.5-fold of each other in EC50: 139 nM for the first, 195 nM for the second.

`CC(C)C(C(=O)N[C@H]1Cc2ccccc2[C@@H]1N)c1ccc(Cl)cc1` (stereo partly drawn) [Example 20, N-[(1S,2S)-1-amino-2,3-dihydro-1H-inden-2-yl]-2-(4-chlorophenyl)-3-methylbutanamide hydrochloride] and `C[C@H](C(=O)N[C@H]1Cc2ccccc2[C@@H]1N)c1ccc(F)cc1F` [Example 34, (2S)—N-[(1S,2S)-1-amino-2,3-dihydro-1H-inden-2-yl]-2-(2,4-difluorophenyl)propanamide] are within 1.5-fold of each other in EC50: 104 nM for the first, 95 nM for the second.

First: C[C@H](C(=O)N[C@H]1Cc2ccccc2[C@@H]1NC(=O)OC(C)(C)C)c1ccc(F)cc1F [Example 23, tert-butyl N-[(1S,2S)-2-[(2S)-2-(2,4-difluorophenyl)propanamido]-2,3-dihydro-1H-inden-1-yl]carbamate]
Second: CCC(C(=O)N[C@@H]1Cc2ccccc2[C@H]1NC(=O)OC(C)(C)C)c1ccc(F)cc1F (stereo partly drawn) [Example 41, tert-butyl N-[(1R,2R)-2-[2-(2,4-difluorophenyl)butanamido]-2,3-dihydro-1H-inden-1-yl]carbamate]
The EC50 of the first is 12-fold lower: 18 nM for the first, 216 nM for the second.

Going from `C[C@H](C(=O)N[C@@H]1Cc2ccccc2[C@H]1N)c1ccc(F)cc1F` [Example 35, (2S)—N-[(1R,2R)-1-amino-2,3-dihydro-1H-inden-2-yl]-2-(2,4-difluorophenyl)propanamide] to `C[C@H](C(=O)N[C@H]1Cc2ccccc2[C@@H]1NCC1CCOCC1)c1ccc(F)cc1F` [Example 40, (2S)-2-(2,4-difluorophenyl)-N-[(1S,2S)-1-{[(oxan-4-yl)methyl]amino}-2,3-dihydro-1H-inden-2-yl]propanamide], the EC50 falls from 233 nM to 23 nM (10-fold). The second is the more potent here.

First: CC[C@H](C(=O)N[C@H]1Cc2ccccc2[C@@H]1NC(=O)OC(C)(C)C)c1ccc(F)cc1 [Example 42, tert-butyl N-[(1S,2S)-2-[(2S)-2-(4-fluorophenyl)butanamido]-2,3-dihydro-1H-inden-1-yl]carbamate]
Second: CC[C@H](C(=O)N[C@@H]1Cc2ccccc2[C@H]1NC(=O)OC(C)(C)C)c1ccc(F)cc1 [Example 43, tert-butyl N-[(1R,2R)-2-[(2S)-2-(4-fluorophenyl)butanamido]-2,3-dihydro-1H-inden-1-yl]carbamate]
The EC50 of the first is 10-fold lower: 13 nM for the first, 130 nM for the second. The first is the more potent here.
